Results from ChEMBL document CHEMBL5715949, “Discovery of a selective irreversible BMX inhibitor for prostate cancer” (ACS Chem Biol, 2013).
Active and inactive are the calls of the source. The calls are words filed in the database; no cut-off is given here.

What was measured:
[1] = system: Phosphatidylinositol 4,5-bisphosphate 3-kinase catalytic subunit alpha isoform (Homo sapiens), P42336 [I800L]; assay: Inhibition of PIK3CA I800L mutant (unknown origin) assessed as remaining activity at 1 uM by Kinome scan method relative to control
[2] = target: BMP-2-inducible protein kinase (Homo sapiens) (UniProt Q9NSY1); assay: Inhibition of BIKE (unknown origin) assessed as remaining activity at 1 uM by Kinome scan method relative to control
Sequence of BMP-2-inducible protein kinase (Homo sapiens) (Q9NSY1 whole entry, looked up): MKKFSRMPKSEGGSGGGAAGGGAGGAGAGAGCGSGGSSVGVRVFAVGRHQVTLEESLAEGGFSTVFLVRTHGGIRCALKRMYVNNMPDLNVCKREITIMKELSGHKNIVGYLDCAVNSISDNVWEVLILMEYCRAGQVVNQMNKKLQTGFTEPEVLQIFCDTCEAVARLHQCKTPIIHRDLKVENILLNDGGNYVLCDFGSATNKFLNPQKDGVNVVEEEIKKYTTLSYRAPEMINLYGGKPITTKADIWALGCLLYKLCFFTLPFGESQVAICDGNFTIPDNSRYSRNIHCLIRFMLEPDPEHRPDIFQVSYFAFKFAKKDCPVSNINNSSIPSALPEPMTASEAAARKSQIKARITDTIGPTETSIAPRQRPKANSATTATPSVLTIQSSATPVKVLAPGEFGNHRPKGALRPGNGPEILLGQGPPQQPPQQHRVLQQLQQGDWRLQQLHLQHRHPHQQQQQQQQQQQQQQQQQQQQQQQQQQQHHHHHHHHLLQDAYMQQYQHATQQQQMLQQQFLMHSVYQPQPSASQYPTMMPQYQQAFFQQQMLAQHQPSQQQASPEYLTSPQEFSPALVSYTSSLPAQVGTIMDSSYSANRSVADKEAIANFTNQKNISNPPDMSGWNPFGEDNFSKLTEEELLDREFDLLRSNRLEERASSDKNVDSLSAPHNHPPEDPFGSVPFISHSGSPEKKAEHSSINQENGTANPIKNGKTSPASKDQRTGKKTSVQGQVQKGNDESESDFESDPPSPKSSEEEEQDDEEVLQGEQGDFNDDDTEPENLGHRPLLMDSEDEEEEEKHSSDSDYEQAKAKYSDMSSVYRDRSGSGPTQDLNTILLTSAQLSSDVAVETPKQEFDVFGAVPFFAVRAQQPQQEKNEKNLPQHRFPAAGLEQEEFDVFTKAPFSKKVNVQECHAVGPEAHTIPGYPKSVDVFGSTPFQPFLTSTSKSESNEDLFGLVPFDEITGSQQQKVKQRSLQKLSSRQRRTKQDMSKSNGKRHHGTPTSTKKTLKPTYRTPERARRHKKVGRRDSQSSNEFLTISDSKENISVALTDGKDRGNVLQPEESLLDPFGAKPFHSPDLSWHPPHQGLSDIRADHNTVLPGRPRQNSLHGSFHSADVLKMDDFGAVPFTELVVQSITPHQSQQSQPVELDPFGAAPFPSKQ

[3] = target: Serine/threonine-protein kinase MAK (Homo sapiens) (UniProt P20794); assay: Inhibition of MAK (unknown origin) assessed as remaining activity at 1 uM by Kinome scan method relative to control
Sequence of Serine/threonine-protein kinase MAK (Homo sapiens) (P20794 whole entry): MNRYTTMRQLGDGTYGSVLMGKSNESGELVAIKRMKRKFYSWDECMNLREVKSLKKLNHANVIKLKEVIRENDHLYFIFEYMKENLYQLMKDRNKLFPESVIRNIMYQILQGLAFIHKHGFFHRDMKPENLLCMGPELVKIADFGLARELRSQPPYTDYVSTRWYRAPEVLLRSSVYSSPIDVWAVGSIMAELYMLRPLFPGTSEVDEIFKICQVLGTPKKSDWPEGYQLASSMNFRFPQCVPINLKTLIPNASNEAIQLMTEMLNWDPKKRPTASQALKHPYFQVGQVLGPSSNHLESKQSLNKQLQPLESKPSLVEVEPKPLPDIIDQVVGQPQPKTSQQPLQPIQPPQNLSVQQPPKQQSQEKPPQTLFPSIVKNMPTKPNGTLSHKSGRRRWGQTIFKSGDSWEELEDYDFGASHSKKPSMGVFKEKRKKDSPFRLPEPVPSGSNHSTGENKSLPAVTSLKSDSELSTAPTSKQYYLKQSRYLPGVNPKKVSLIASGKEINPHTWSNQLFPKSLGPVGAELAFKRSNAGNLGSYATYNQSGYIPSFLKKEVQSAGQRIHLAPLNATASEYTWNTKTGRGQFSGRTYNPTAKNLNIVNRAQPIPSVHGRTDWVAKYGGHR

[4] = target: Serine/threonine-protein kinase RIO1 (Homo sapiens) (UniProt Q9BRS2); assay: Inhibition of RIOK1 (unknown origin) assessed as remaining activity at 1 uM by Kinome scan method relative to control
Sequence of Serine/threonine-protein kinase RIO1 (Homo sapiens) (Q9BRS2 whole entry): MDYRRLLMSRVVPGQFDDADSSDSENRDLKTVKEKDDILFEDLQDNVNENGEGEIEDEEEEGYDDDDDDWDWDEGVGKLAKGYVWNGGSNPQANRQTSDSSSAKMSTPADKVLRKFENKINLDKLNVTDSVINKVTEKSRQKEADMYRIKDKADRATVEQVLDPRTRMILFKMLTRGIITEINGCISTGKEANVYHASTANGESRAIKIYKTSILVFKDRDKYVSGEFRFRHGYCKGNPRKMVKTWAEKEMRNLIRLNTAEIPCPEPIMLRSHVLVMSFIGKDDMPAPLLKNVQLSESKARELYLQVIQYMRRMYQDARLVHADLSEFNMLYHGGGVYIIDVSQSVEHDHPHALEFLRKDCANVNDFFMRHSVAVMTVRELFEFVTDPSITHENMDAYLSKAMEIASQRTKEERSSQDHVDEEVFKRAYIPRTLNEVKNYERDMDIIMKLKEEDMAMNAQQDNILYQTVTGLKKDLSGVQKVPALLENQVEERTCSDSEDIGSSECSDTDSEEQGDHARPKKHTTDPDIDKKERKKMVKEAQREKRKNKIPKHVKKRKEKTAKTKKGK

[5] = target: Serine/threonine-protein kinase DCLK3 (Homo sapiens) (UniProt Q9C098); assay: Inhibition of DCAMKL3 (unknown origin) assessed as remaining activity at 1 uM by Kinome scan method relative to control
Sequence of Serine/threonine-protein kinase DCLK3 (Homo sapiens) (Q9C098 whole entry): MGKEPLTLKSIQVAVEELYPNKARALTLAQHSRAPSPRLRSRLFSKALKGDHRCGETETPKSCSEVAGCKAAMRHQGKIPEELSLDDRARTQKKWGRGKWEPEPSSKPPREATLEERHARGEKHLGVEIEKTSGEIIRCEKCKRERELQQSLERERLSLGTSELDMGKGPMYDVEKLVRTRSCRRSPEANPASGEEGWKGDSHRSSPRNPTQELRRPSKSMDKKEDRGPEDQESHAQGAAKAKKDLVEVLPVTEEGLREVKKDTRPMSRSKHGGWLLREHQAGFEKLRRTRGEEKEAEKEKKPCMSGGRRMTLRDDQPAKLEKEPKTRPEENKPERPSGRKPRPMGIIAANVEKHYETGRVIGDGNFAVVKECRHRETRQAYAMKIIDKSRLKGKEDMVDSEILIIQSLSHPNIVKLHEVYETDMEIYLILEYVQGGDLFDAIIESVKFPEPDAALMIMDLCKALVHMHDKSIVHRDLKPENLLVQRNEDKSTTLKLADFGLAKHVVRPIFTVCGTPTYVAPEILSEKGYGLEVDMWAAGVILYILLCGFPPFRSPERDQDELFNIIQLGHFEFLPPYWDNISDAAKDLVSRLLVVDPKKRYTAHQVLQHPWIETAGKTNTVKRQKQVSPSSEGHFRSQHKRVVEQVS

[6] = target: Receptor-type tyrosine-protein kinase FLT3 (Homo sapiens) (UniProt P36888); assay: Inhibition of FLT3 (unknown origin) assessed as remaining activity at 1 uM by Kinome scan method relative to control
[7] = target: Serine/threonine-protein kinase PknB (Mycobacterium tuberculosis) (UniProt P9WI81); assay: Inhibition of Mycobacterium tuberculosis PknB assessed as remaining activity at 1 uM by Kinome scan method relative to control
[8] = target: Protein kinase C delta type (Homo sapiens) (UniProt Q05655); assay: Inhibition of PRKCD (unknown origin) assessed as remaining activity at 1 uM by Kinome scan method relative to control
[9] = system: RV-1; assay: Antiproliferative activity against human RV-1 cells assessed as reduction in cell viability at 500 to 2500 nM incubated for 5 days in presence of MK2206 by CellTiter-Glo assay; type: functional, cell-based; conditions: dose 500-2500 nM, time 5.0 day
[10] = target: Proto-oncogene tyrosine-protein kinase ROS (Homo sapiens) (UniProt P08922); assay: Inhibition of ROS1 (unknown origin) assessed as remaining activity at 1 uM by Kinome scan method relative to control
[11] = target: Insulin receptor-related protein (Homo sapiens) (UniProt P14616); assay: Inhibition of INSRR (unknown origin) assessed as remaining activity at 1 uM by Kinome scan method relative to control
[12] = Down regulation of BMX protein expression in human RV-1 cells expressing wild type BMX assessed protein expression level at 2.5 uM pre incubated for 4 hrs followed by compound wash out and additon of CHX and measured after 24 hrs by immunoblot analysis (reference value: 0.98 to 1.01); type: functional
[13] = system: BaF3; assay: Antiproliferative activity against mouse BaF3 cells expressing TEL-fused JAK2 assessed growth inhibition incubated for 2 to 5 days by CellTiter-Glo assay; type: functional; conditions: time 2-5 day
[14] = system: VCaP; assay: Antiproliferative activity against human VCaP cells assessed growth inhibition incubated for 2 to 5 days by CellTiter-Glo assay; type: functional; conditions: time 2-5 day
[15] = target: cGMP-dependent protein kinase 1 (Homo sapiens) (UniProt Q13976); assay: Inhibition of PRKG1 (unknown origin) assessed as remaining activity at 1 uM by Kinome scan method relative to control
[16] = target: MAP/microtubule affinity-regulating kinase 4 (Homo sapiens) (UniProt Q96L34); assay: Inhibition of MARK4 (unknown origin) assessed as remaining activity at 1 uM by Kinome scan method relative to control
[17] = system: Proto-oncogene tyrosine-protein kinase receptor Ret (Homo sapiens), P07949 [V804M]; assay: Inhibition of RET V804M (unknown origin) assessed as remaining activity at 1 uM by Kinome scan method relative to control
[18] = target: Ribosomal protein S6 kinase alpha-3 (Homo sapiens) (UniProt P51812); assay: Inhibition of N-terminal kinase domain RSK2 (unknown origin) assessed as remaining activity at 1 uM by Kinome scan method relative to control
[19] = target: Focal adhesion kinase 1 (Homo sapiens) (UniProt Q05397); assay: Inhibition of FAK (unknown origin) assessed as remaining activity at 1 uM by Kinome scan method relative to control
[20] = target: Phosphorylase b kinase gamma catalytic chain, liver/testis isoform (Homo sapiens) (UniProt P15735); assay: Inhibition of PHKG2 (unknown origin) assessed as remaining activity at 1 uM by Kinome scan method relative to control
Sequence of Phosphorylase b kinase gamma catalytic chain, liver/testis isoform (Homo sapiens) (P15735 whole entry, canonical isoform): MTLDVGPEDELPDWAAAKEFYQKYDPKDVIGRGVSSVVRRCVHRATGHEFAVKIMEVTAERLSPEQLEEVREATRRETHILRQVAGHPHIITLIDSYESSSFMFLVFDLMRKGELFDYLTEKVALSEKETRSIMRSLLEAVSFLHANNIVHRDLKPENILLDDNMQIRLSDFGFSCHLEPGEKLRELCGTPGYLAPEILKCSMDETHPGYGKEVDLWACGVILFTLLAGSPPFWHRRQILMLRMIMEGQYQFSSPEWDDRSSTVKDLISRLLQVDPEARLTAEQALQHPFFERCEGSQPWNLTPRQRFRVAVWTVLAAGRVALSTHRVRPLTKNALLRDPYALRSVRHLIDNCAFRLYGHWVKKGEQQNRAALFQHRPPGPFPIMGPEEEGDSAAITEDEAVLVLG

[21] = target: Tyrosine-protein kinase CSK (Homo sapiens) (UniProt P41240); assay: Inhibition of CSK (unknown origin) assessed as remaining activity at 1 uM by Kinome scan method relative to control
Sequence of Tyrosine-protein kinase CSK (Homo sapiens) (P41240 2-450 limits assumed): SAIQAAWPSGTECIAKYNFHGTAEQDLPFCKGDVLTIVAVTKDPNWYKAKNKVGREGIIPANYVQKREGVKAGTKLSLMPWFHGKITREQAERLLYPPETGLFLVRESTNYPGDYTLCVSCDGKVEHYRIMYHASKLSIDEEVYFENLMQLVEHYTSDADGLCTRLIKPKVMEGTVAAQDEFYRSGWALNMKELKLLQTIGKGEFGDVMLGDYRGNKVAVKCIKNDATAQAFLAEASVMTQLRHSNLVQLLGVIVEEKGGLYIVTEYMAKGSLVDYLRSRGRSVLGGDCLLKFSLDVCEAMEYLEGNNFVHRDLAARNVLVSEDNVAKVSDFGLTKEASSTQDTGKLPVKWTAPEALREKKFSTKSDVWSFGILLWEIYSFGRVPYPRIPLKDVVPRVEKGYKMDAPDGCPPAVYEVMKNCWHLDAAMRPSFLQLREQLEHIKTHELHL

[22] = target: Serine/threonine-protein kinase Nek2 (Homo sapiens) (UniProt P51955); assay: Inhibition of NEK2 (unknown origin) assessed as remaining activity at 1 uM by Kinome scan method relative to control
[23] = target: 5'-AMP-activated protein kinase catalytic subunit alpha-2 (Homo sapiens) (UniProt P54646); assay: Inhibition of AMPK-alpha2 (unknown origin) assessed as remaining activity at 1 uM by Kinome scan method relative to control
Sequence of 5'-AMP-activated protein kinase catalytic subunit alpha-2 (Homo sapiens) (P54646 whole entry, looked up): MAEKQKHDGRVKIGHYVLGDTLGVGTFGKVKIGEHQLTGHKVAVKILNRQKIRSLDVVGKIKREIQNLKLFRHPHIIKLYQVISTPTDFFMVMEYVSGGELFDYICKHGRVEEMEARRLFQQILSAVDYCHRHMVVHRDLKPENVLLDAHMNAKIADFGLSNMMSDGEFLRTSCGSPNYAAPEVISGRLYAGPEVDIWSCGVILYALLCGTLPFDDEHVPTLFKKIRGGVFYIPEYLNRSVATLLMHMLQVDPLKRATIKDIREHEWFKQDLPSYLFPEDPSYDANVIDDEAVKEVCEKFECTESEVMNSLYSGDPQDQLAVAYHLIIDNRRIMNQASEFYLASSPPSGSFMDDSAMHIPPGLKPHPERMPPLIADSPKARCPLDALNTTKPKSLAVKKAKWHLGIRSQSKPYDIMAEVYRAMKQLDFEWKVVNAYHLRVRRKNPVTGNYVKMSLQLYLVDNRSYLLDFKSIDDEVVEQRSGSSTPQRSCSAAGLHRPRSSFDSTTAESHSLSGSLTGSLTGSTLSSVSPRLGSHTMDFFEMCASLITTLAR

[24] = system: Tyrosine-protein kinase ABL1 (Homo sapiens), P00519 [H396P]; assay: Inhibition of ABL1 H396P mutant (unknown origin) assessed as remaining activity at 1 uM by Kinome scan method relative to control
[25] = target: Casein kinase I isoform delta (Homo sapiens) (UniProt P48730); assay: Inhibition of CSNK1D (unknown origin) assessed as remaining activity at 1 uM by Kinome scan method relative to control
[26] = target: Serine/threonine-protein kinase Nek4 (Homo sapiens) (UniProt P51957); assay: Inhibition of NEK4 (unknown origin) assessed as remaining activity at 1 uM by Kinome scan method relative to control
[27] = target: Tyrosine-protein kinase HCK (Homo sapiens) (UniProt P08631); assay: Inhibition of HCK (unknown origin) assessed as remaining activity at 1 uM by Kinome scan method relative to control
Sequence of Tyrosine-protein kinase HCK (Homo sapiens) (P08631 2-526 limits assumed): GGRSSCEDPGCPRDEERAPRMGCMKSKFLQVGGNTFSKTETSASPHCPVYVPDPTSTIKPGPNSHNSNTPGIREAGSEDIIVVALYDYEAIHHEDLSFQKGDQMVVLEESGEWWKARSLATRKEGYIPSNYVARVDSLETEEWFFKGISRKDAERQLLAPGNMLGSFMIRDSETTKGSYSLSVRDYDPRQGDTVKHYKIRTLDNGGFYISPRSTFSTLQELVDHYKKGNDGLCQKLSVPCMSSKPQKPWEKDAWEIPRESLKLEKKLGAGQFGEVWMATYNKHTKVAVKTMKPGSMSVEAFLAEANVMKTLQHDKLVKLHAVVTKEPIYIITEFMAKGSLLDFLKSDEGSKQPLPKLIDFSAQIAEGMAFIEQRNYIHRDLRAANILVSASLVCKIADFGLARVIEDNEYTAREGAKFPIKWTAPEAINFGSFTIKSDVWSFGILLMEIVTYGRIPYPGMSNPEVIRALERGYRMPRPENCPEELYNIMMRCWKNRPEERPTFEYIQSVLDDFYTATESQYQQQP

[28] = target: Hormonally up-regulated neu tumor-associated kinase (Homo sapiens) (UniProt P57058); assay: Inhibition of HUNK (unknown origin) assessed as remaining activity at 1 uM by Kinome scan method relative to control
[29] = target: Bone morphogenetic protein receptor type-2 (Homo sapiens) (UniProt Q13873); assay: Inhibition of BMPR2 (unknown origin) assessed as remaining activity at 1 uM by Kinome scan method relative to control
[30] = Induction of cell cycle arrest in human RV-1 cells assessed as accumulation of cells at G2/M phase at 2.5 uM incubated for 5 days by propidium iodide staining based flow cytometric analysis (reference value: 11.4 %); type: functional; conditions: time 5 day
[31] = Inhibition of PI3K/AKT/mTOR signalling pathway in human RV-1 cells assessed as decrease in PRAS40 phosphorylation at T246 residue at 2.5 uM incubated for 4 hrs by immunoblot analysis; type: cell-based
[32] = target: Mitogen-activated protein kinase kinase kinase 12 (Homo sapiens) (UniProt Q12852); assay: Inhibition of DLK (unknown origin) assessed as remaining activity at 1 uM by Kinome scan method relative to control

SMILES: C=CC(=O)Nc1cc(-n2c(=O)ccc3cnc4ccc(-c5ccc(NS(C)(=O)=O)cc5)cc4c32)ccc1C
- Activity [1]: 46%
- Activity [2]: 76%
- Activity [3]: 70%
- Activity [4]: 20%
- Activity [5]: 94%
- Activity [6]: 80%
- Activity [7]: 41%
- Activity [8]: 41%
- Activity [9]: Active
- Activity [10]: 81%
- Activity [11]: 98%
- Activity [12]: 0.32
- GI50 [13]: 5.83 µM
- GI50 [14]: 2.46 µM
- Activity [15]: 87%
- Activity [16]: 80%
- Activity [17]: 85%
- Activity [18]: 81%
- Activity [19]: 96%
- Activity [20]: 74%
- Activity [21]: 99%
- Activity [22]: 79%
- Activity [23]: 92%
- Activity [24]: 74%
- Activity [25]: 84%
- Activity [26]: 81%
- Activity [27]: 97%
- Activity [28]: 85%
- Activity [29]: 69%
- Activity [30]: 9.1%
- inhibition [31]: inactive
- Activity [32]: 70%
